Results: patent US8975241B2, “Composition for treating and preventing obesity including high water-soluble 2-hydroxypropyl-betacyclodextrin as effective component” (Song Ho Biomed Co., Ltd., priority 2009, dated 2015)

Columns and labels:
[1] = test system: mouse model with obesity caused by a high fat diet; test: Change in body weight by autonomically drinking in mouse model with obesity caused by high fat diet; assay type: in vivo; details: 15% (w/v) in drinking water
Procedure: (§1) Male C57BL/6J mice (Five age of the week, KRIBB, Korea) were accommodated for 1 week, and then were induced with obesity by giving a high fat diet (60% fat kcal, Research Diets) for 15 days. The weights of the animals that were induced with obesity were equally divided into 3 animals as one group. And then, the solvent-control group drank sterilized distilled water, autonomically. Hydroxypropyl-β-cyclodextrin (HPBCD) was dissolved in sterilized distilled water to be 10, 15, and 20% (W/V) concentrations for drinking autonomically. A change in body weight was daily measured to all of animals during the test; the fixed amount of feeds was provided at the day of measuring body weight, and then an amount of intake per a group (g/day) was calculated by measuring a residual amount of feeds at the next day. A change in body weight was measured during the test using α-cyclodextrin (α-CD) instead of 2-hydroxypropyl-β-cyclodextrin (HPBCD) in the same method as the above <Example 1>.

[2] = Solubility in water; details: at 25° C.
[3] = test system: mouse model with obesity caused by a high fat diet; test: Amount of feed intake by autonomically drinking in mouse model with obesity caused by high fat diet; assay type: in vivo; details: for Amount of Feed Intake: per group
Procedure: as §1, with “day.” for “day. A change in body weight was measured during the test using α-cyclodextrin (α-CD) instead of 2-hydroxypropyl-β-cyclodextrin (HPBCD) in the same method as the above <Example 1>.”

[4] = test system: mouse model with obesity caused by a high fat diet; test: Change in body weight by autonomically drinking in mouse model with obesity caused by high fat diet; assay type: in vivo
[5] = test system: normal mouse (ICR); test: Oral glucose tolerance test; assay type: in vivo; details: for Rate of Suppression (%): vs control group
From the text: An oral glucose tolerance test system is to comprehensively predict whether or not a sample has an effect on suppressing a sharp increase of blood sugar induced by intaking glucose after an oral-administration of the sample to a mouse, activities of suppressing glycolysis/glucose absorption, etc.
A normal mouse [ICR, 6W, Coretech Inc., Korea] was accommodated for 1 week, and then approximately 18˜20 g female with 7 age of the week mouse was used. 6 mice were assigned for one experimental group and starved for 16 hours to use. Hydroxypropyl-β-cyclodextrin (HPBCD) was dissolved in sterilized distilled water to be 20% (W/V) concentration, and then oral-administered in 0.2 mL per 20 g body weight of a mouse. And then, the glucose dissolved in physiological saline was oral-administered to mice in a liquid amount of 10 ml/kg to inject 2 g/kg after 15, 30, 60, and 90 minutes, respectively. The levels of blood sugars were measured just before administering glucose (0 hour), and at 15, 60, and 120 minutes after administering glucose. Blood for measuring blood sugar was collected from orbital venous of the mouse using a capillary tube. The blood sugar in the collected blood was measured using a measuring instrument, […] ALPHA (Boehringer mannheim Co.). The same amount of sterilized distilled water was administered for the control group.

[6] = test system: mouse model with obesity caused by a high fat diet; test: Weights of body fat and liver after autonomically drinking in mouse model with obesity caused by high fat diet; assay type: in vivo
Procedure: The animals induced with obesity in the above <Example 1> drank autonomically HPBCD with 10, 15, and 20% (W/V) concentrations for 3 days and then their autopsies were conducted. The mice were killed by using CO2 gas; their abdomens were cut; their genital fats, intra-abdominal fats, and livers were isolated; then their weights were measured using a chemical balance; average weight of three animals was calculated.

[7] = 10% (w/v) in drinking water, 1 Day
[8] = 10% (w/v) in drinking water, 2 Day
[9] = 10% (w/v) in drinking water, 3 Day
[10] = 10, 15, 20% (W/V) autonomically drinking
[11] = 15% (w/v) in drinking water, 2 Day
[12] = 20% (w/v) in drinking water, 1 Day
[13] = 20% (w/v) in drinking water, 2 Day
[14] = 20% (w/v) in drinking water, 3 Day
[15] = 20% (W/V) oral (−)15 min. before glucose 2 g/kg
[16] = 20% (W/V) oral (−)30 min. before glucose 2 g/kg
[17] = 20% (W/V) oral (−)60 min. before glucose 2 g/kg
[18] = 20% (W/V) oral (−)90 min. before glucose 2 g/kg
[19] = 10% (w/v) in drinking water for 3 days
[20] = 15% (w/v) in drinking water for 3 days
[21] = 20% (w/v) in drinking water for 3 days

2-hydroxypropyl-β-cyclodextrin [HPBCD]
Change in body weight (%) ([1]; 1 Day): 96.1 ± 1.1 % | Change in body weight (%) ([1]; 3 Day): 90.9 ± 2.3 % | Solubility [2]: > 600 mg/mL | Amount of Feed Intake [3, 7]: 3.9 g/day | Amount of Feed Intake [3, 8]: 3.9 g/day | Amount of Feed Intake [3, 9]: 2.7 g/day | appetite / dietary intake [3, 10]: effect on suppressing appetite | Amount of Feed Intake ([3]; 15% (w/v) in drinking water, 1 Day): 4.1 g/day | Amount of Feed Intake [3, 11]: 4.5 g/day | Amount of Feed Intake ([3]; 15% (w/v) in drinking water, 3 Day): 4.0 g/day | Amount of Feed Intake [3, 12]: 4.2 g/day | Amount of Feed Intake [3, 13]: 4.2 g/day | Amount of Feed Intake [3, 14]: 2.6 g/day | Change in body weight (%) ([4]; 10% (w/v) in drinking water, 0 Day): 100.0 ± 0.0% | Change in body weight (%) [4, 7]: 98.1 ± 0.2% | Change in body weight (%) [4, 8]: 97.6 ± 0.8 % | Change in body weight (%) [4, 9]: 94.6 ± 0.7 % | body weight as compared with the distilled water-drinking control group [4, 10]: decreased depending on the concentration | body weight as compared with the initial body weight [4, 10]: significantly decreased | Change in body weight (%) ([4]; 15% (w/v) in drinking water, 0 Day): 100.0 ± 0.0% | Change in body weight (%) [4, 11]: 94.0 ± 1.3 % | Change in body weight (%) ([4]; 20% (w/v) in drinking water, 0 Day): 100.0 ± 0.0% | Change in body weight (%) [4, 12]: 100.0 ± 0.0% | Change in body weight (%) [4, 13]: 89.1 ± 6.9 % | Change in body weight (%) [4, 14]: 85.4 ± 8.1 % | Increasing Amount of Blood Sugar (15 min.~0 hour) [5, 15]: 190.0 mg/dL | Level of Blood Sugar Before and After Administration of D-glucose (mg/dl), 0 Hour [5, 15]: 74.8 mg/dL | Level of Blood Sugar Before and After Administration of D-glucose (mg/dl), 15 min. [5, 15]: 264.8 mg/dL | Rate of Suppression (%) [5, 15]: 19.7% | Increasing Amount of Blood Sugar (15 min.~0 hour) [5, 16]: 191.0 mg/dL | Level of Blood Sugar Before and After Administration of D-glucose (mg/dl), 0 Hour [5, 16]: 83.3 mg/dL | Level of Blood Sugar Before and After Administration of D-glucose (mg/dl), 15 min. [5, 16]: 274.3 mg/dL | Rate of Suppression (%) [5, 16]: 19.3% | Increasing Amount of Blood Sugar (15 min.~0 hour) [5, 17]: 184.5 mg/dL | Level of Blood Sugar Before and After Administration of D-glucose (mg/dl), 0 Hour [5, 17]: 83.3 mg/dL | Level of Blood Sugar Before and After Administration of D-glucose (mg/dl), 15 min. [5, 17]: 267.8 mg/dL | Rate of Suppression (%) [5, 17]: 22.0% | Increasing Amount of Blood Sugar (15 min.~0 hour) [5, 18]: 180.7 mg/dL | Level of Blood Sugar Before and After Administration of D-glucose (mg/dl), 0 Hour [5, 18]: 78.3 mg/dL | Level of Blood Sugar Before and After Administration of D-glucose (mg/dl), 15 min. [5, 18]: 259.0 mg/dL | Rate of Suppression (%) [5, 18]: 23.7% | blood sugar caused by intaking glucose suppressed as compared with the control group ([5]; oral, all pre-treatment times): 19˜24% | Total Amount of Fat [6, 19]: 1615.0 ± 212.3 mg | Weight of Genital Fat [6, 19]: 594.0 ± 95.0 mg | Weight of Intra-abdominal Fat [6, 19]: 158.8 ± 36.3 mg | Weight of Liver [6, 19]: 999.3 ± 150.2 mg | Weight of Subcutaneous Fat [6, 19]: 862.2 ± 86.7 mg | weight of liver vs control group [6, 10]: decreased depending on the concentrations | Total Amount of Fat [6, 20]: 1437.0 ± 282.0 mg | Weight of Genital Fat [6, 20]: 524.8 ± 67.1 mg | Weight of Intra-abdominal Fat [6, 20]: 147.2 ± 29.2 mg | Weight of Liver [6, 20]: 820.5 ± 66.0 mg | Weight of Subcutaneous Fat [6, 20]: 765.1 ± 238.8 mg | Total Amount of Fat [6, 21]: 1035.6 ± 324.3 mg | Weight of Genital Fat [6, 21]: 448.4 ± 108.6 mg | Weight of Intra-abdominal Fat [6, 21]: 97.8 ± 44.9 mg | Weight of Liver [6, 21]: 808.7 ± 76.8 mg | Weight of Subcutaneous Fat [6, 21]: 489.4 ± 183.5 mg
